Test results published in US9351974B2, “Substituted pteridinones for the treatment of cancer” (OSI Pharmaceuticals, LLC, priority 2011, dated 2016).
pIC50: −log10 of the molar value.

Target: T1, His-tagged full-length RSK2 (RPS6KA3) (Homo sapiens, UniProt P51812)
T1 construct: His-tagged full-length RSK2 (RPS6KA3, Invitrogen PV3323); His; purchased Invitrogen PV3323
Assay: RSK2 Omnia Assay for compound IC50 determination
Format: biochemical
Conditions: ATP 15 μM, n=2, read-out: Mean RSK2 Biochem IC50
How it was run: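 Initial-rate slopes from continuous kinetic reads were fitted to a four-parameter equation for IC50 (n=2). Ki was then derived by Cheng-Prusoff assuming ATP-competitive inhibition. Reactions contained 15 μM ATP (Km 16.3 μM), 5 μM Omnia ST Peptide 6, and […] in 50 mM HEPES pH 7.5, 10 mM MgCl2, 1 mM DTT, 1% DMSO. Compounds spanned 11 threefold steps, […] final.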

T1 sequence (P51812 whole entry): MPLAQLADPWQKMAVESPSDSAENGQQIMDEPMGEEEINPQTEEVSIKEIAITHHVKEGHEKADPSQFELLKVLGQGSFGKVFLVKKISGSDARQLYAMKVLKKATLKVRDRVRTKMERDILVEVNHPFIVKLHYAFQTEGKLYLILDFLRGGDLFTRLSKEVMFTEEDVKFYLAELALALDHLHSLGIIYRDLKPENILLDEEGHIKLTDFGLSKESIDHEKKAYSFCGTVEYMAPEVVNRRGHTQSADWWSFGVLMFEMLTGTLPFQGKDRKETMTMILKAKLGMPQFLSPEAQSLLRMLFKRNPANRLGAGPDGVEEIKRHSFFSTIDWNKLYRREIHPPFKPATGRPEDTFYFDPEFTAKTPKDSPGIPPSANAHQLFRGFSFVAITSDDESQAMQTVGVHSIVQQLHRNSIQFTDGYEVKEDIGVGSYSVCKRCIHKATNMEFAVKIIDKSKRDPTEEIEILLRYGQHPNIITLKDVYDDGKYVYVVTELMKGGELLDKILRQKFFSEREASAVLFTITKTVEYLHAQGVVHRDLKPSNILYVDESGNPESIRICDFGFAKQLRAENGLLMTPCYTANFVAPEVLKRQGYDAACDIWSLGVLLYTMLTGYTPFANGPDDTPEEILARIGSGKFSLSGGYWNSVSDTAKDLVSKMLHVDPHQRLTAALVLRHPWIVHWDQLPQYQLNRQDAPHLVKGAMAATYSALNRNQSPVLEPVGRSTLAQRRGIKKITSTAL

Row | Compound | pIC50
1 | COc1ccc(N2C(=O)[C@@H](C)N(C3CCOCC3)c3nc(Nc4cc(F)c5[nH]ncc5c4)ncc32)cc1C#N [compound 190, 5-[(7R)-2-[(7-fluoro-1H-indazol-5-yl)amino]-7-methyl-6-oxo-8-(tetrahydro-2H-pyran-4-yl)-7,8-dihydropteridin-5(6H)-yl]-2-methoxybenzonitrile] | ≥ 7.00
2 | C[C@@H]1C(=O)N(c2cccnc2)c2cnc(Nc3cc(F)c4[nH]ncc4c3)nc2N1C1CCOCC1 [compound 191, (7R)-2-[(7-fluoro-1H-indazol-5-yl)amino]-7-methyl-5-(pyridin-3-yl)-8-(tetrahydro-2H-pyran-4-yl)-7,8-dihydropteridin-6(5H)-one] | ≥ 7.00
3 | COc1ccc(N2C(=O)[C@@H](C)N(C3CCOCC3)c3nc(Nc4cc(F)c5[nH]ncc5c4)ncc32)cn1 [compound 192, (7R)-2-[(7-fluoro-1H-indazol-5-yl)amino]-5-(6-methoxypyridin-3-yl)-7-methyl-8-(tetrahydro-2H-pyran-4-yl)-7,8-dihydropteridin-6(5H)-one] | ≥ 7.00
4 | C[C@@H]1C(=O)N(c2ccc(N3CCN(C)CC3)nc2)c2cnc(Nc3cc(F)c4[nH]ncc4c3)nc2N1C1CCOCC1 [compound 193, (7R)-2-[(7-fluoro-1H-indazol-5-yl)amino]-7-methyl-5-[6-(4-methylpiperazin-1-yl)pyridin-3-yl]-8-(tetrahydro-2H-pyran-4-yl)-7,8-dihydropteridin-6(5H)-one] | ≥ 7.00
5 | C[C@@H]1C(=O)N(c2cccc(C#N)c2)c2cnc(Nc3cc(F)c(O)c(F)c3)nc2N1C1CCOCC1 [compound 194, 3-[(7R)-2-[(3,5-difluoro-4-hydroxyphenyl)amino]-7-methyl-6-oxo-8-(tetrahydro-2H-pyran-4-yl)-7,8-dihydropteridin-5(6H)-yl]benzonitrile] | ≥ 7.00
6 | CCOc1ccc(N2C(=O)[C@@H](C)N(C3CCOCC3)c3nc(Nc4cc(F)c5[nH]ncc5c4)ncc32)cc1C#N [compound 195, 2-Ethoxy-5-[(7R)-2-[(7-fluoro-1H-indazol-5-yl)amino]-7-methyl-6-oxo-8-(tetrahydro-2H-pyran-4-yl)-7,8-dihydropteridin-5(6H)-yl]benzonitrile] | ≥ 7.00
7 | CC(C)Oc1ccc(N2C(=O)[C@@H](C)N(C3CCOCC3)c3nc(Nc4cc(F)c5[nH]ncc5c4)ncc32)cc1C#N [compound 196, 5-[(7R)-2-[(7-fluoro-1H-indazol-5-yl)amino]-7-methyl-6-oxo-8-(tetrahydro-2H-pyran-4-yl)-7,8-dihydropteridin-5(6H)-yl]-2-(propan-2-yloxy)benzonitrile] | ≥ 7.00
8 | COc1ccc(N2C(=O)[C@@H](C)N(C3CCOCC3)c3nc(Nc4ccc5[nH]c(=O)oc5c4)ncc32)cc1C#N [compound 197, 2-Methoxy-5-[(7R)-7-methyl-6-oxo-2-[(2-oxo-2,3-dihydro-1,3-benzoxazol-6-yl)amino]-8-(tetrahydro-2H-pyran-4-yl)-7,8-dihydropteridin-5(6H)-yl]benzonitrile] | ≥ 7.00
9 | CCOc1ccc(N2C(=O)[C@@H](C)N(C3CCOCC3)c3nc(Nc4ccc5[nH]c(=O)oc5c4)ncc32)cc1C#N [compound 198, 2-Ethoxy-5-[(7R)-7-methyl-6-oxo-2-[(2-oxo-2,3-dihydro-1,3-benzoxazol-6-yl)amino]-8-(tetrahydro-2H-pyran-4-yl)-7,8-dihydropteridin-5(6H)-yl]benzonitrile] | ≥ 7.00
10 | CC(C)Oc1ccc(N2C(=O)[C@@H](C)N(C3CCOCC3)c3nc(Nc4ccc5[nH]c(=O)oc5c4)ncc32)cc1C#N [compound 199, 5-[(7R)-7-methyl-6-oxo-2-[(2-oxo-2,3-dihydro-1,3-benzoxazol-6-yl)amino]-8-(tetrahydro-2H-pyran-4-yl)-7,8-dihydropteridin-5(6H)-yl]-2-(propan-2-yloxy)benzonitrile] | ≥ 7.00
11 | COc1ccc(N2C(=O)[C@@H](C)N(C3CCOCC3)c3nc(Nc4cnc5[nH]ncc5c4)ncc32)cc1C#N [compound 200, 2-methoxy-5-[(7R)-7-methyl-6-oxo-2-(1H-pyrazolo[3,4-b]pyridin-5-ylamino)-8-(tetrahydro-2H-pyran-4-yl)-7,8-dihydropteridin-5(6H)-yl]benzonitrile] | ≥ 7.00
12 | CCOc1ccc(N2C(=O)[C@@H](C)N(C3CCOCC3)c3nc(Nc4cnc5[nH]ncc5c4)ncc32)cc1C#N [compound 201, 2-Ethoxy-5-[(7R)-7-methyl-6-oxo-2-(1H-pyrazolo[3,4-b]pyridin-5-ylamino)-8-(tetrahydro-2H-pyran-4-yl)-7,8-dihydropteridin-5(6H)-yl]benzonitrile] | ≥ 7.00
13 | CC(C)Oc1ccc(N2C(=O)[C@@H](C)N(C3CCOCC3)c3nc(Nc4cnc5[nH]ncc5c4)ncc32)cc1C#N [compound 202, 5-[(7R)-7-methyl-6-oxo-2-(1H-pyrazolo[3,4-b]pyridin-5-ylamino)-8-(tetrahydro-2H-pyran-4-yl)-7,8-dihydropteridin-5(6H)-yl]-2-(propan-2-yloxy)benzonitrile] | ≥ 7.00
14 | COc1ccc(N2C(=O)[C@@H](C)N(C3CCOCC3)c3nc(Nc4cc(F)c5[nH]c(=O)oc5c4)ncc32)cc1C#N [compound 203, 5-[(7R)-2-[(4-fluoro-2-oxo-2,3-dihydro-1,3-benzoxazol-6-yl)amino]-7-methyl-6-oxo-8-(tetrahydro-2H-pyran-4-yl)-7,8-dihydropteridin-5(6H)-yl]-2-methoxybenzonitrile] | ≥ 7.00
15 | CCOc1ccc(N2C(=O)[C@@H](C)N(C3CCOCC3)c3nc(Nc4cc(F)c5[nH]c(=O)oc5c4)ncc32)cc1C#N [compound 204, 2-Ethoxy-5-[(7R)-2-[(4-fluoro-2-oxo-2,3-dihydro-1,3-benzoxazol-6-yl)amino]-7-methyl-6-oxo-8-(tetrahydro-2H-pyran-4-yl)-7,8-dihydropteridin-5(6H)-yl]benzonitrile] | ≥ 7.00
16 | CC(C)Oc1ccc(N2C(=O)[C@@H](C)N(C3CCOCC3)c3nc(Nc4cc(F)c5[nH]c(=O)oc5c4)ncc32)cc1C#N [compound 205, 5-[(7R)-2-[(4-fluoro-2-oxo-2,3-dihydro-1,3-benzoxazol-6-yl)amino]-7-methyl-6-oxo-8-(tetrahydro-2H-pyran-4-yl)-7,8-dihydropteridin-5(6H)-yl]-2-(propan-2-yloxy)benzonitrile] | ≥ 7.00
17 | C[C@@H]1C(=O)N(c2ccc(N3CCN(C)CC3)c(C#N)c2)c2cnc(Nc3cc(F)c4[nH]ncc4c3)nc2N1C1CCOCC1 [compound 206, 5-[(7R)-2-[(7-fluoro-1H-indazol-5-yl)amino]-7-methyl-6-oxo-8-(tetrahydro-2H-pyran-4-yl)-7,8-dihydropteridin-5(6H)-yl]-2-(4-methylpiperazin-1-yl)benzonitrile] | ≥ 7.00
18 | CO[C@H]1CC[C@@H](N2c3nc(Nc4cc(F)c5[nH]ncc5c4)ncc3N(c3cccc(C#N)c3)C(=O)[C@H]2C)CC1 [compound 223, 3-[(7R)-2-[(7-fluoro-1H-indazol-5-yl)amino]-8-(cis-4-methoxycyclohexyl)-7-methyl-6-oxo-7,8-dihydropteridin-5(6H)-yl]benzonitrile] | ≥ 7.00
19 | CO[C@H]1CC[C@H](N2c3nc(Nc4cc(F)c5[nH]ncc5c4)ncc3N(c3cccc(C#N)c3)C(=O)[C@H]2C)CC1 [compound 224, 3-[(7R)-2-[(7-fluoro-1H-indazol-5-yl)amino]-8-(trans-4-methoxycyclohexyl)-7-methyl-6-oxo-7,8-dihydropteridin-5(6H)-yl]benzonitrile] | ≥ 7.00
20 | COc1ccc(N2C(=O)[C@@H](C)N([C@H]3CC[C@H](OC)CC3)c3nc(Nc4cc(F)c5[nH]ncc5c4)ncc32)cc1OC [compound 225, (7R)-5-(3,4-dimethoxyphenyl)-2-[(7-fluoro-1H-indazol-5-yl)amino]-8-(trans-4-methoxycyclohexyl)-7-methyl-7,8-dihydropteridin-6(5H)-one] | ≥ 7.00
21 | COc1ccc(N2C(=O)[C@@H](C)N([C@H]3CC[C@@H](OC)CC3)c3nc(Nc4cc(F)c5[nH]ncc5c4)ncc32)cc1OC [compound 226, (7R)-5-(3,4-dimethoxyphenyl)-2-[(7-fluoro-1H-indazol-5-yl)amino]-8-(cis-4-methoxycyclohexyl)-7-methyl-7,8-dihydropteridin-6(5H)-one] | ≥ 7.00
22 | CO[C@H]1CC[C@@H](N2c3nc(Nc4cc(F)c5[nH]ncc5c4)ncc3N(c3cccnc3)C(=O)[C@H]2C)CC1 [compound 227, (7R)-2-[(7-fluoro-1H-indazol-5-yl)amino]-8-(cis-4-methoxycyclohexyl)-7-methyl-5-(pyridin-3-yl)-7,8-dihydropteridin-6(5H)-one] | ≥ 7.00
23 | CO[C@H]1CC[C@@H](N2c3nc(Nc4ccc5[nH]c(=O)oc5c4)ncc3N(c3cccc(C#N)c3)C(=O)[C@H]2C)CC1 [compound 228, 3-[(7R)-8-(cis-4-methoxycyclohexyl)-7-methyl-6-oxo-2-[(2-oxo-2,3-dihydro-1,3-benzoxazol-6-yl)amino]-7,8-dihydropteridin-5(6H)-yl]benzonitrile] | ≥ 7.00
24 | CO[C@H]1CC[C@H](N2c3nc(Nc4ccc5[nH]c(=O)oc5c4)ncc3N(c3cccc(C#N)c3)C(=O)[C@H]2C)CC1 [compound 229, 3-[(7R)-8-(trans-4-methoxycyclohexyl)-7-methyl-6-oxo-2-[(2-oxo-2,3-dihydro-1,3-benzoxazol-6-yl)amino]-7,8-dihydropteridin-5(6H)-yl]benzonitrile] | ≥ 7.00
25 | CO[C@H]1CC[C@H](N2c3nc(Nc4cc5cn[nH]c5cn4)ncc3N(c3cccc(C#N)c3)C(=O)[C@H]2C)CC1 [compound 230, 3-[(7R)-8-(trans-4-methoxycyclohexyl)-7-methyl-6-oxo-2-(1H-pyrazolo[3,4-c]pyridin-5-ylamino)-7,8-dihydropteridin-5(6H)-yl]benzonitrile] | 6.00 to 7.00
